# Several values for one entry are separate records, joined by “and”; a condition that tells them apart may be missing. Equal values may be shown once.
# Columns and labels:
# [1] = UV absorption (λmax, εmax) in solution; assay type: physicochemical
compound,measurement,setting,value
"2-(1-benzyl-1H-pyrrol-2-yl)-4,6-bis[4-(H-imidazo[1,2-a]pyridin-2-yl)phenylamino]-1,3,5-triazine [Example 10]",UV λmax,[1]; DMSO,338 nm
same,εmax,[1]; DMSO,55000 M⁻¹ cm⁻¹
"Oc1ccc(-c2nc(-c3ccc(O)cc3O)nc(-c3cccn3Cc3ccccc3)n2)c(O)c1 [Example 1 b), 2-(1-benzyl-1H-pyrrol-2-yl)-4,6-bis(2,4-dihydroxyphenyl)-1,3,5-triazine]",melting point,,> 275 °C
"CCCCC(CC)COc1ccc(-c2nc(-c3ccc(OCC(CC)CCCC)cc3O)nc(-c3cccn3Cc3ccccc3)n2)c(O)c1 (stereo not drawn) [Example 1, 2-(1-benzyl-1H-pyrrol-2-yl)-4,6-bis[4-(2-ethylhexyloxy)-2-hydroxyphenyl]-1,3,5-triazine]",melting point,,66 to 68 °C
same,εmax,[1]; chloroform,66000 M⁻¹ cm⁻¹
same,λmax,[1]; chloroform,350-352 nm
"CCCCOC(=O)c1ccc(Nc2nc(Nc3ccc(C(=O)OCCCC)cc3)nc(-c3cccn3Cc3ccccc3)n2)cc1 [Example 2, 2-(1-benzyl-1H-pyrrol-2-yl)-4,6-bis[4-(butoxycarbonyl)phenylamino]-1,3,5-triazine]",melting point,,173 to 174 °C
same,εmax,[1]; chloroform,64000 M⁻¹ cm⁻¹
same,λmax,[1]; chloroform,312 nm
"c1ccc(Cn2cccc2-c2nc(Nc3ccc(-c4ccccc4)cc3)nc(Nc3ccc(-c4ccccc4)cc3)n2)cc1 [Example 3, 2-(1-benzyl-1H-pyrrol-2-yl)-4,6-bis(biphenyl-4-ylamino)-1,3,5-triazine]",melting point,,185 to 186 °C
same,UV λmax,[1]; ethanol,309 nm
same,εmax,[1]; ethanol,73000 M⁻¹ cm⁻¹
"O=C(c1ccccc1)c1ccc(Nc2nc(Nc3ccc(C(=O)c4ccccc4)cc3)nc(-c3cccn3Cc3ccccc3)n2)cc1 [Example 4, 2-(1-benzyl-1H-pyrrol-2-yl)-4,6-bis(4-benzoylphenylamino)-1,3,5-triazine]",melting point,,115 to 118 °C
same,UV λmax,[1]; ethanol,330 nm
same,εmax,[1]; ethanol,80000 M⁻¹ cm⁻¹
"O=C1c2ccccc2-c2cc(Nc3nc(Nc4ccc5c(c4)-c4ccccc4C5=O)nc(-c4cccn4Cc4ccccc4)n3)ccc21 [Example 5, 2-(1-benzyl-1H-pyrrol-2-yl)-4,6-bis(9-oxo-9H-fluoren-3-ylamino)-1,3,5-triazine]",melting point,,140 to 142 °C
same,UV λmax,[1]; ethanol,292 nm
same,εmax,[1]; ethanol,77000 M⁻¹ cm⁻¹
"c1ccc(Cn2cccc2-c2nc(Nc3ccc(-c4cn5ccccc5n4)cc3)nc(Nc3ccc(-c4cn5ccccc5n4)cc3)n2)cc1 [Example 6, 2-(1-benzyl-1H-pyrrol-2-yl)-4,6-bis[4-(imidazo[1,2-a]pyridin-2-yl)phenylamino]-1,3,5-triazine]",UV λmax,[1]; ethanol,332 nm
same,εmax,[1]; ethanol,71000 M⁻¹ cm⁻¹
"CCCCOC(=O)c1ccc(Nc2nc(Nc3ccc(C(=O)OCCCC)cc3)nc(-c3cccn3C(c3ccccc3)c3ccccc3)n2)cc1 [Example 7, 2-(1-benzydryl-1H-pyrrol-2-yl)-4,6-bis[4-(butoxycarbonyl)phenylamino]-1,3,5-triazine]",melting point,,80 to 82 °C
same,UV λmax,[1]; ethanol,315 nm
same,εmax,[1]; ethanol,81000 M⁻¹ cm⁻¹
"CCCCC(CC)COC(=O)c1ccc(Nc2nc(Nc3ccc(C(=O)OCC(CC)CCCC)cc3)nc(-c3cccn3Cc3ccccc3)n2)cc1 (stereo not drawn) [Example 9, 2-(1-benzyl-1H-pyrrol-2-yl)-4,6-bis[4-((2-ethylhexyloxy)carbonyl)phenylamino]-1,3,5-triazine]",UV λmax,[1]; CHCl3/MeOH,315 nm
same,εmax,[1]; CHCl3/MeOH,76000 M⁻¹ cm⁻¹
"c1ccc(Cn2cccc2-c2nc(Nc3ccc(-c4nc5ccccc5[nH]4)cc3)nc(Nc3ccc(-c4nc5ccccc5[nH]4)cc3)n2)cc1 [Example 11, 2-(1-benzyl-1H-pyrrol-2-yl)-4,6-bis[4-(1H-benzo[d]imidazol-2-yl)phenylamino]-1,3,5-triazine]",UV λmax,[1]; CHCl3/MeOH,327 nm
same,εmax,[1]; CHCl3/MeOH,100000 M^1 cm^−1
"c1ccc(Cn2cccc2-c2nc(Nc3ccc(-n4cccn4)cc3)nc(Nc3ccc(-n4cccn4)cc3)n2)cc1 [Example 12, 2-(1-benzyl-1H-pyrrol-2-yl)-4,6-bis[4-(1H-pyrazol-1-yl)phenylamino]-1,3,5-triazine]",UV λmax,[1]; MeOH,307 nm
same,εmax,[1]; MeOH,67000 M⁻¹ cm⁻¹
"c1ccc(Cn2cccc2-c2nc(Nc3ccc4ccccc4c3)nc(Nc3ccc4ccccc4c3)n2)cc1 [Example 13, 2-(1-benzyl-1H-pyrrol-2-yl)-4,6-bis[naphthalen-2-ylamino]-1,3,5-triazine]",UV λmax,[1]; MeOH,263 nm and 308 nm
same,εmax,"[1]; MeOH, at λmax=263 nm",54000 M⁻¹ cm⁻¹
same,εmax,"[1]; MeOH, at λmax=308 nm",52000 M⁻¹ cm⁻¹
"CCOC(=O)/C=C/c1ccc(Nc2nc(Nc3ccc(/C=C/C(=O)OCC)cc3)nc(-c3cccn3Cc3ccccc3)n2)cc1 [Example 14, 2-(1-benzyl-1H-pyrrol-2-yl)-4,6-bis[4-((E)-3-ethoxy-3-oxoprop-1-enyl)phenylamino]-1,3,5-triazine]",UV λmax,[1]; MeOH,336 nm
same,εmax,[1]; MeOH,57000 M⁻¹ cm⁻¹
"C(=C\c1ccc(Nc2nc(Nc3ccc(/C=C/c4ccccc4)cc3)nc(-c3cccn3Cc3ccccc3)n2)cc1)/c1ccccc1 [Example 15, 2-(1-benzyl-1H-pyrrol-2-yl)-4,6-bis[4-(E)-styrylphenylamino]-1,3,5-triazine]",UV λmax,[1]; CHCl3,336 nm
same,εmax,[1]; CHCl3,102000 M^1 cm^−1
